According to patent publication US12649722B2, “Herbicidal cinnoline derivatives” (SYNGENTA CROP PROTECTION AG, priority 2020, dated 2026):

Legend:
Format in all cases: in vivo
[1] = system: Amaranthus retoflexus (AMARE); assay: Pre-emergence Test, AMARE; details: 1000 g/ha, evaluated after 13 days
[2] = system: Ipornoea hederacea (IPOHE); assay: Pre-emergence Test, IPOHE; details: 1000 g/ha, evaluated after 13 days
[3] = system: Echinochloa crus-galli (ECHCG); assay: Pre-emergence Test, ECHCG; details: 1000 g/ha, evaluated after 13 days
Setaria faberi (SETFA) [4] = assay: Pre-emergence Test, SETFA; details: 1000 g/ha, evaluated after 13 days
ABUTH [5] = assay: Pre-emergence Test, ABUTH; details: 1000 g/ha, evaluated after 13 days
[6] = system: Amaranthus retoflexus (AMARE); assay: Post-emergence Test, AMARE; details: sprayed after 8 days cultivation, 1000 g/ha, evaluated after 13 days
Procedure: (§1) Seeds of a variety of test species are sown in standard soil in pots (Amaranthus retoflexus (AMARE), Solarium nigrum (SOLNI), Setaria faberi (SETFA), Lolium perenne (LOLPE), Echinochloa crus-galli (ECHCG), Ipornoea hederacea (IPOHE)). After 8 days cultivation under controlled conditions in a glasshouse (at 24° C./16° C., day/night; 14 hours light; 65% humidity), the plants are sprayed with an aqueous spray solution derived from the formulation of the technical active ingredient in acetone/water (50:50) solution containing 0.5% Tween 20 (polyoxyethylene sorbitan monolaurate, CAS RN 9005-64-5). Compounds are applied at 1000 g/ha unless otherwise stated. The test plants are then grown in a glasshouse under controlled conditions in a glasshouse (at 24° C./16° C., day/night; 14 hours light; 65% humidity) and watered twice daily. After 13 days the test is evaluated for the percentage damage caused to the plant. The biological activities are shown in the following table on a five-point scale (5=81-100%; 4=61-80%; 3=41-60%; 2=21-40%; 1=10-20%; 0=0%; −=not tested).

[7] = system: Ipornoea hederacea (IPOHE); assay: Post-emergence Test, IPOHE; details: sprayed after 8 days cultivation, 1000 g/ha, evaluated after 13 days
Procedure: as §1

[8] = system: Echinochloa crus-galli (ECHCG); assay: Post-emergence Test, ECHCG; details: sprayed after 8 days cultivation, 1000 g/ha, evaluated after 13 days
Procedure: as §1

Setaria faberi (SETFA) [9] = assay: Post-emergence Test, SETFA; details: sprayed after 8 days cultivation, 1000 g/ha, evaluated after 13 days
Procedure: as §1

ZEAMX [10] = assay: Post-emergence Test, ZEAMX; details: sprayed after 8 days cultivation, 1000 g/ha, evaluated after 13 days
Procedure: [The procedure below names another target; the source lists this target under the same test.] as §1

ABUTH [11] = assay: Post-emergence Test, ABUTH; details: sprayed after 8 days cultivation, 1000 g/ha, evaluated after 13 days
Procedure: [The procedure below names another target; the source lists this target under the same test.] as §1

ZEAMX [12] = assay: Pre-emergence Test, ZEAMX; details: 1000 g/ha, evaluated after 13 days

Compound	percentage damage caused to the plant, AMARE [1]	percentage damage caused to the plant, IPOHE [2]	percentage damage caused to the plant, ECHCG [3]	percentage damage caused to the plant, SETFA (Setaria faberi (SETFA) [4])	percentage damage caused to the plant, ABUTH (ABUTH [5])	percentage damage caused to the plant, AMARE [6]	percentage damage caused to the plant, IPOHE [7]	percentage damage caused to the plant, ECHCG [8]	percentage damage caused to the plant, SETFA (Setaria faberi (SETFA) [9])	percentage damage caused to the plant, ZEAMX (ZEAMX [10])	percentage damage caused to the plant, ABUTH (ABUTH [11])	percentage damage caused to the plant, ZEAMX (ZEAMX [12])
CCOC(=O)c1nn(-c2ccc(OC(F)(F)F)cc2)c2cccc(-c3cc(C(F)F)on3)c2c1=O [Compound P12, ethyl 5-[5-(difluoromethyl)isoxazol-3-yl]-4-oxo-1-[4-(trifluoromethoxy)phenyl] cinnoline-3-carboxylate]	0 (0=0%)	0 (0=0%)	0 (0=0%)	0 (0=0%)	0 (0=0%)	0 (0=0%)	2 (2=21-40%)	0 (0=0%)	2 (2=21-40%)	1 (1=10-20%)	1 (1=10-20%)	
O=C(O)c1nn(-c2ccc(OC(F)(F)F)cc2)c2cccc(-c3cc(C(F)F)on3)c2c1=O [Compound P13, 5-[5-(difluoromethyl)isoxazol-3-yl]-4-oxo-1-[4-(trifluoromethoxy)phenyl] cinnoline-3-carboxylic acid]	0 (0=0%)	0 (0=0%)	0 (0=0%)	0 (0=0%)	0 (0=0%)	1 (1=10-20%)	2 (2=21-40%)	3 (3=41-60%)	4 (4=61-80%)	3 (3=41-60%)	0 (0=0%)	0 (0=0%)
CCOC(=O)c1nn(-c2ccc(OC(F)(F)F)cc2)c2cccc(/C(C)=N/O)c2c1=O [Compound P14, ethyl 5-[(E)-N-hydroxy-C-methyl-carbonimidoyl]-4-oxo-1-[4-(trifluoromethoxy)phenyl] cinnoline-3-carboxylate]	1 (1=10-20%)	0 (0=0%)	4 (4=61-80%)	4 (4=61-80%)	1 (1=10-20%)	2 (2=21-40%)	1 (1=10-20%)	4 (4=61-80%)	3 (3=41-60%)	4 (4=61-80%)	3 (3=41-60%)	2 (2=21-40%)
C/C(=N\O)c1cccc2c1c(=O)c(C(=O)O)nn2-c1ccc(OC(F)(F)F)cc1 [Compound P15, 5-[(E)-N-hydroxy-C-methyl-carbonimidoyl]-4-oxo-1-[4-(trifluoromethoxy)phenyl] cinnoline-3-carboxylic acid]	2 (2=21-40%)	0 (0=0%)	4 (4=61-80%)	5 (5=81-100%)	2 (2=21-40%)	1 (1=10-20%)	3 (3=41-60%)	4 (4=61-80%)	3 (3=41-60%)	3 (3=41-60%)	3 (3=41-60%)	3 (3=41-60%)
C=Cc1cccc2c1c(=O)c(C(=O)OCC)nn2-c1ccc(OC(F)(F)F)cc1 [Compound P16, ethyl 4-oxo-1-[4-(trifluoromethoxy)phenyl]-5-vinyl-cinnoline-3-carboxylate]	2 (2=21-40%)	1 (1=10-20%)	2 (2=21-40%)	3 (3=41-60%)	2 (2=21-40%)	2 (2=21-40%)	1 (1=10-20%)	3 (3=41-60%)	4 (4=61-80%)	2 (2=21-40%)	1 (1=10-20%)	1 (1=10-20%)
C=Cc1cccc2c1c(=O)c(C(=O)O)nn2-c1ccc(OC(F)(F)F)cc1 [Compound P17, 4-oxo-1-[4-(trifluoromethoxy)phenyl]-5-vinyl-cinnoline-3-carboxylic acid]	2 (2=21-40%)	0 (0=0%)	2 (2=21-40%)	3 (3=41-60%)	1 (1=10-20%)	2 (2=21-40%)	0 (0=0%)	3 (3=41-60%)	3 (3=41-60%)	1 (1=10-20%)	1 (1=10-20%)	1 (1=10-20%)
CCOC(=O)c1nn(-c2ccc(OC(F)(F)F)cc2)c2cccc([N+](=O)[O-])c2c1=O [Compound P39, ethyl 5-nitro-4-oxo-1-[4-(trifluoromethoxy)phenyl] cinnoline-3-carboxylate]	0 (0=0%)	0 (0=0%)	2 (2=21-40%)	5 (5=81-100%)	1 (1=10-20%)	0 (0=0%)	0 (0=0%)	3 (3=41-60%)	3 (3=41-60%)	0 (0=0%)		0 (0=0%)
O=C(O)c1nn(-c2ccc(OC(F)(F)F)cc2)c2cccc([N+](=O)[O-])c2c1=O [Compound P40, 5-nitro-4-oxo-1-[4-(trifluoromethoxy)phenyl] cinnoline-3-carboxylic acid]	2 (2=21-40%)	0 (0=0%)	2 (2=21-40%)	5 (5=81-100%)	3 (3=41-60%)	1 (1=10-20%)	0 (0=0%)	3 (3=41-60%)	5 (5=81-100%)	1 (1=10-20%)		0 (0=0%)
COc1ccc(-n2nc(C(=O)O)c(=O)c3c(C#N)cccc32)cc1OC [Compound P41, 5-cyano-1-(3,4-dimethoxyphenyl)-4-oxo-cinnoline-3-carboxylic acid]	0 (0=0%)	0 (0=0%)	0 (0=0%)	0 (0=0%)	0 (0=0%)	0 (0=0%)	1 (1=10-20%)		2 (2=21-40%)	0 (0=0%)	1 (1=10-20%)	0 (0=0%)
CCOC(=O)c1nn(-c2ccc(OC)c(OC)c2)c2cccc(C#N)c2c1=O [Compound P42, ethyl 5-cyano-1-(3,4-dimethoxyphenyl)-4-oxo-cinnoline-3-carboxylate]	0 (0=0%)	0 (0=0%)	0 (0=0%)	0 (0=0%)	0 (0=0%)	0 (0=0%)	0 (0=0%)		0 (0=0%)	0 (0=0%)	0 (0=0%)	0 (0=0%)
